According to patent US9249129B2, “Morpholino substituted urea derivatives as mTOR inhibitors” (CELLZOME LIMITED, priority 2010, dated 2016):

How the values were obtained:
Test in all cases: kinobeads assay with mass spectrometry detection of kinases (kinase selectivity profile)
Type in all cases: binding
kinases (kinome) [1] = target: T1, kinases (kinome) (Homo sapiens, UniProt O96013); conditions: PAK4 (STE), IPI00014068
T1 construct: determined in kinobeads assays with mass spectrometry detection of kinases as described previously; endogenous in cells; host or cells: cell lysate
Source text: (§1) The protein kinase complement of the human genome (the kinome) was described previously (Manning et al., 2002. Science 298(5600):1912-1934). Sequence accession numbers are defined by the International Protein Index (IPI) (Kersey et al., 2004. Proteomics 4(7):1985-1988).

kinases (kinome) [2] = target: T2, kinases (kinome) (Homo sapiens, UniProt P07948); conditions: LYN (TK), IPI00298625
T2 construct: determined in kinobeads assays with mass spectrometry detection of kinases as described previously; endogenous in cells; host or cells: cell lysate
Source text: as §1

kinases (kinome) [3] = target: T3, kinases (kinome) (Homo sapiens, UniProt P27361); conditions: Erk1 (CMGC), IPI00018195
T3 construct: determined in kinobeads assays with mass spectrometry detection of kinases as described previously; endogenous in cells; host or cells: cell lysate
Source text: as §1

kinases (kinome) [4] = target: T4, kinases (kinome) (Homo sapiens, UniProt P41240); conditions: CSK (TK), IPI00013212
T4 construct: determined in kinobeads assays with mass spectrometry detection of kinases as described previously; endogenous in cells; host or cells: cell lysate
Source text: as §1

kinases (kinome) [5] = target: T5, kinases (kinome) (Homo sapiens, UniProt Q13554); conditions: CaMK2b (CAMK), IPI00221305
T5 construct: determined in kinobeads assays with mass spectrometry detection of kinases as described previously; endogenous in cells; host or cells: cell lysate
Source text: as §1

kinases (kinome) [6] = target: T6, kinases (kinome) (Homo sapiens, UniProt Q8IU85); conditions: CaMK1d (CAMK), IPI00170508
T6 construct: determined in kinobeads assays with mass spectrometry detection of kinases as described previously; endogenous in cells; host or cells: cell lysate
Source text: as §1

kinases (kinome) [7] = target: T7, kinases (kinome) (Homo sapiens, UniProt Q96L34); conditions: MARK4 (CAMK), IPI00064797
T7 construct: determined in kinobeads assays with mass spectrometry detection of kinases as described previously; endogenous in cells; host or cells: cell lysate
T7 sequence (Q96L34 1-752): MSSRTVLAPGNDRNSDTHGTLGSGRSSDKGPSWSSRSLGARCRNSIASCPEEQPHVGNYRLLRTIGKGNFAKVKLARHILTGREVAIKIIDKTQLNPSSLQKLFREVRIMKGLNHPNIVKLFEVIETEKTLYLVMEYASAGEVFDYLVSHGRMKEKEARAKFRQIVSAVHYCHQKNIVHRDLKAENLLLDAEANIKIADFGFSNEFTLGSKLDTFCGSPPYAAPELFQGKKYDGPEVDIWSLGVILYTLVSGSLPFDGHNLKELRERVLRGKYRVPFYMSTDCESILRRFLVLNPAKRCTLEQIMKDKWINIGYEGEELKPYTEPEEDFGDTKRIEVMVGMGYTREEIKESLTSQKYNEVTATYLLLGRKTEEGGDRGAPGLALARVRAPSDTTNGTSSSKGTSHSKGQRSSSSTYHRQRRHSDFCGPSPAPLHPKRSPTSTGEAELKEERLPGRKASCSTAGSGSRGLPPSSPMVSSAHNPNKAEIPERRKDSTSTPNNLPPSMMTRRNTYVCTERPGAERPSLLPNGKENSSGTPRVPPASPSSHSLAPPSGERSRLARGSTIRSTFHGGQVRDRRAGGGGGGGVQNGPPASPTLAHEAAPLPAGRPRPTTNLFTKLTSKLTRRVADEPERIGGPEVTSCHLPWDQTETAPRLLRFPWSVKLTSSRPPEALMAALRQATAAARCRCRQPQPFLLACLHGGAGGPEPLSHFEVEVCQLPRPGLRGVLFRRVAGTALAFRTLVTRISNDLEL
Source text: as §1

kinases (kinome) [8] = target: T8, kinases (kinome) (Homo sapiens, UniProt Q96S53); conditions: TESK2 (TKL), IPI00102677
T8 construct: determined in kinobeads assays with mass spectrometry detection of kinases as described previously; endogenous in cells; host or cells: cell lysate
Source text: as §1

kinases (kinome) [9] = target: T9, kinases (kinome) (Homo sapiens, UniProt Q99640); conditions: MYT1 (Other), IPI00909627
T9 construct: determined in kinobeads assays with mass spectrometry detection of kinases as described previously; endogenous in cells; host or cells: cell lysate
T9 sequence (Q99640 1-499): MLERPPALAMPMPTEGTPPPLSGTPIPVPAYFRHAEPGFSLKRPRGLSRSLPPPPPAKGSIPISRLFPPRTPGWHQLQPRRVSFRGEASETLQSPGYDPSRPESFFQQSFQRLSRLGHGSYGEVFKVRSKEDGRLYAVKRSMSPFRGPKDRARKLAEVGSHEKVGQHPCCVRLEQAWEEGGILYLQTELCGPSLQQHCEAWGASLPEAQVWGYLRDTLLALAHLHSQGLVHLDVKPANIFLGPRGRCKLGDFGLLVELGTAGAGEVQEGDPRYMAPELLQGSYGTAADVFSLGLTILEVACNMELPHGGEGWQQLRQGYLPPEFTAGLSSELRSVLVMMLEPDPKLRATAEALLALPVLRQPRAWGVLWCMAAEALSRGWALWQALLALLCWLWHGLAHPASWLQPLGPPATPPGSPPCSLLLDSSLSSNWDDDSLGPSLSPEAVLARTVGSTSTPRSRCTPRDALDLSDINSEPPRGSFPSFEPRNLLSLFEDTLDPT
Source text: as §1

Measured: IC50

T8 sequence (Q96S53 whole entry): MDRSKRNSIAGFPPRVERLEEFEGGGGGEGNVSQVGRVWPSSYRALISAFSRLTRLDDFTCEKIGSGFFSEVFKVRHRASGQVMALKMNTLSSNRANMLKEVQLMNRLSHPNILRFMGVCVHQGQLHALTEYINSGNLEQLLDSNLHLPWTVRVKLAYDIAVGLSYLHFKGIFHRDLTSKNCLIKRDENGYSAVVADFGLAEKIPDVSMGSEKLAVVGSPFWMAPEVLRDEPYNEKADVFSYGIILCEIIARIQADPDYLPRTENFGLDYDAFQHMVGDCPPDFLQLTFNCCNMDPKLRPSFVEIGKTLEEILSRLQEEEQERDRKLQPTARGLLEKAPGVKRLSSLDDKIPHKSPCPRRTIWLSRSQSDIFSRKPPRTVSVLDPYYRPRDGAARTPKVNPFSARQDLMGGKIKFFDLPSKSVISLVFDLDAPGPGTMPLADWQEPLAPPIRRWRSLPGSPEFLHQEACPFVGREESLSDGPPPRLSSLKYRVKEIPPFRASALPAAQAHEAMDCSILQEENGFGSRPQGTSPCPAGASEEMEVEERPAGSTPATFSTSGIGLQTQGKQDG
T2 sequence (P07948 whole entry): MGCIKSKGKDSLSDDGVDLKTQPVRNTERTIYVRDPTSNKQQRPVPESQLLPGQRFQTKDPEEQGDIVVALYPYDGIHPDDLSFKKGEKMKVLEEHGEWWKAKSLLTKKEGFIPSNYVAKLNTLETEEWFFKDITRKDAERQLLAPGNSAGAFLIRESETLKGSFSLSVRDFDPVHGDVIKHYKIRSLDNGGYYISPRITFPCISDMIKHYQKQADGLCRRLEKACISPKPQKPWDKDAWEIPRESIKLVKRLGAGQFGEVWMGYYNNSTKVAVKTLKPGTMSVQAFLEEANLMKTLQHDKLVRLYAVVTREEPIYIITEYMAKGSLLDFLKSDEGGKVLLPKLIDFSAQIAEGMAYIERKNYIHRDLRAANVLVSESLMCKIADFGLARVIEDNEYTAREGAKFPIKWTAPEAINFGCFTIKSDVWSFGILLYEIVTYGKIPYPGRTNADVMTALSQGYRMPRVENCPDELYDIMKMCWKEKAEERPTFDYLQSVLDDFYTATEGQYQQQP
T5 sequence (Q13554 whole entry): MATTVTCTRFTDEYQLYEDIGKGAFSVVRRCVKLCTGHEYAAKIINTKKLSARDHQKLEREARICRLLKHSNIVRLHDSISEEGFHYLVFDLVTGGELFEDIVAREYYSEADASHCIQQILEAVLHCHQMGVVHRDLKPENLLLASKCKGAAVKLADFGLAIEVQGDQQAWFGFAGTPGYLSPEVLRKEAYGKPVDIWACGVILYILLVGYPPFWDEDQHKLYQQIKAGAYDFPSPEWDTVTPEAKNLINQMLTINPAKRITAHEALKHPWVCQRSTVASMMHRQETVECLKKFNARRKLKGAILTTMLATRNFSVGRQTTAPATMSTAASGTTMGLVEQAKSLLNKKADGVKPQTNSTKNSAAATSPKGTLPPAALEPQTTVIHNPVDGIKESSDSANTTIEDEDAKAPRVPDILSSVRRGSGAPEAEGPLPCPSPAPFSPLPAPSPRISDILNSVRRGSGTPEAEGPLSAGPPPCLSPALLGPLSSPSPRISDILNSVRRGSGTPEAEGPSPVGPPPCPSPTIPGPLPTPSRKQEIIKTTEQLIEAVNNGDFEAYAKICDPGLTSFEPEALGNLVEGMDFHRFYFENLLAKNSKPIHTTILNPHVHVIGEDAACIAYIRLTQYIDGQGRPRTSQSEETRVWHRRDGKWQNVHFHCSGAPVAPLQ
T6 sequence (Q8IU85 whole entry): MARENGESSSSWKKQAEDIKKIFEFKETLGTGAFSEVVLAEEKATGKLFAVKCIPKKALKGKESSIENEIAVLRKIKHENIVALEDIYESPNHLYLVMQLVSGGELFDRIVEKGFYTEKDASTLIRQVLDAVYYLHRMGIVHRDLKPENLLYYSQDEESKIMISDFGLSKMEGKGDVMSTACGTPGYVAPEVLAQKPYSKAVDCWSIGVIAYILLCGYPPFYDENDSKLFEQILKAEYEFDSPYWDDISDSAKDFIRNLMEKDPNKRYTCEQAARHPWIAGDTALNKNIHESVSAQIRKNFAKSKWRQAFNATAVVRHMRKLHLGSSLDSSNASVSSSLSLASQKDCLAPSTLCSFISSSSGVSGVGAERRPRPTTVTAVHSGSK
T3 sequence (P27361 whole entry): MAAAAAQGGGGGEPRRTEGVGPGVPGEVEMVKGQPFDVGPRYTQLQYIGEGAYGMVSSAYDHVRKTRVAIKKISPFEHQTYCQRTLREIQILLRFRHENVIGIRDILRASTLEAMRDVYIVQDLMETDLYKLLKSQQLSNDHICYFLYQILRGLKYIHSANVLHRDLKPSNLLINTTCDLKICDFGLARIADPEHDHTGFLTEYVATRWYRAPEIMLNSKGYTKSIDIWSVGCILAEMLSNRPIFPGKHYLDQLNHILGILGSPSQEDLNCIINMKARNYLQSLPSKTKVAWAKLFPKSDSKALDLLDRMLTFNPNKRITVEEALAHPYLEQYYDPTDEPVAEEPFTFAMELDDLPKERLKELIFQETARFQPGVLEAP
T4 sequence (P41240 whole entry): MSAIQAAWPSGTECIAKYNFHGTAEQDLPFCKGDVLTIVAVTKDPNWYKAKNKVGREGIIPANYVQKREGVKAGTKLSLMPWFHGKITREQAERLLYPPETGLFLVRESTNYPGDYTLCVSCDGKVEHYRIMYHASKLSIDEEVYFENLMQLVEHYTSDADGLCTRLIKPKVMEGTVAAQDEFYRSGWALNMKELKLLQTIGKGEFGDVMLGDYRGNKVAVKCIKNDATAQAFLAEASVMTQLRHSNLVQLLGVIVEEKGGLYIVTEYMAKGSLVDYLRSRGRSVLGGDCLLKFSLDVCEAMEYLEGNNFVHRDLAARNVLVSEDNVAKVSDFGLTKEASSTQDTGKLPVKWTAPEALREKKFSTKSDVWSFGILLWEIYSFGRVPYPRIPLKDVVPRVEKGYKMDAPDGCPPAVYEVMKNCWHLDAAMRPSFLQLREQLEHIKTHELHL
T1 sequence (O96013 whole entry): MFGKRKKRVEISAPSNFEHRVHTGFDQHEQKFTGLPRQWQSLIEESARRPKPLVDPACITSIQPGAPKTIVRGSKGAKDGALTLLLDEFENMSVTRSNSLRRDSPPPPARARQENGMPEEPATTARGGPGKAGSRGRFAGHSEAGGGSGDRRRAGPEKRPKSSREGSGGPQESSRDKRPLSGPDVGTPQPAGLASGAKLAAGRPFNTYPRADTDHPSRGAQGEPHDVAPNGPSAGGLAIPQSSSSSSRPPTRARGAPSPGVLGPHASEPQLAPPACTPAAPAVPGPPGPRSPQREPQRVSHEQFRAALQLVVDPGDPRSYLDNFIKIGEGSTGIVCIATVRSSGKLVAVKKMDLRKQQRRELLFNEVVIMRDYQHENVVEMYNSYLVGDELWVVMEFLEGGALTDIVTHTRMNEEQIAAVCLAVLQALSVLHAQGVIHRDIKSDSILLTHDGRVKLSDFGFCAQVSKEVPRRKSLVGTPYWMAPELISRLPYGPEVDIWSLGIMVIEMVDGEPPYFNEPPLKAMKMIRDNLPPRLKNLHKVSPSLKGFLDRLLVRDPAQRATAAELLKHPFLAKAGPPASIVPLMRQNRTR

C[C@H]1COCCN1c1nc(-c2ccc(NC(=O)NC3CC3)cc2)cc(-c2cccnc2S(C)(=O)=O)n1 [Example 46, (S)-1-cyclopropyl-3-(4-(2-(3-methylmorpholino)-6-(2-(methylsulfonyl)pyridin-3-yl)pyrimidin-4-yl)phenyl)urea]
> 10 µM: all assays above

C[C@H]1COCCN1c1nc(-c2ccc(NC(=O)NC3CC3)cc2)cc(-c2ccccc2S(C)(=O)=O)n1 [Example 4, (S)-1-cyclopropyl-3-(4-(2-(3-methylmorpholino)-6-(2-(methylsulfonyl)phenyl)pyrimidin-4-yl)phenyl)urea]
not listed: kinases (kinome) [5]
> 10 µM: all other assays above

C[C@H]1COCCN1c1nc(-c2ccc(NC(=O)N[C@H]3CCC[C@@H]3O)cc2)cc(-c2cc(F)ccc2S(C)(=O)=O)n1 [Example 76, 1-(4-(6-(5-fluoro-2-(methylsulfonyl)phenyl)-2-((S)-3-methylmorpholino)pyrimidin-4-yl)phenyl)-3-((1S,2S)-2-hydroxycyclopentyl)urea]
> 10 µM: all assays above

CCNC(=O)Nc1ccc(-c2cc(-c3ccccc3C#N)nc(N3CCOC[C@@H]3C)n2)cc1 [Example 8, (S)-1-(4-(6-(2-cyanophenyl)-2-(3-methylmorpholino)pyrimidin-4-yl)phenyl)-3-ethylurea]
> 10 µM: all assays above

C[C@H]1COCCN1c1cc(-c2ccccc2S(C)(=O)=O)nc(-c2ccc(NC(=O)NC3CC3)cc2)n1 [Example 6, (S)-1-cyclopropyl-3-(4-(4-(3-methylmorpholino)-6-(2-(methylsulfonyl)phenyl)pyrimidin-2-yl)phenyl)urea]
> 10 µM: all assays above

C[C@H]1COCCN1c1cc(-c2ccccn2)nc(-c2ccc(NC(=O)NCCO)cc2)n1 [Example 43, (S)-1-(2-hydroxyethyl)-3-(4-(4-(3-methylmorpholino)-6-(pyridin-2-yl)pyrimidin-2-yl)phenyl)urea]
> 10 µM: all assays above

C[C@H]1COCCN1c1nc(-c2ccc(NC(=O)NC3CC3)cc2)cc(-c2cc(F)ccc2S(C)(=O)=O)n1 [Example 40, (S)-1-cyclopropyl-3-(4-(6-(5-fluoro-2-(methylsulfonyl)phenyl)-2-(3-methylmorpholino)pyrimidin-4-yl)phenyl)urea]
> 10 µM: all assays above
